Reference: ChEMBL document CHEMBL1201862, “PubChem BioAssay data set” (2004)
Activity calls are given as the source filed them.

How the values were obtained:
[1] = target: ATP-dependent molecular chaperone HSP82 (Candida albicans (strain WO-1) (Yeast), UniProt C4YTQ8); test: loss of DOC-induced GRE-beta-galactosidase reporter signal, dose response, Hsp90 inhibitor project, S. cerevisiae, luminescence (AID 2400); type: functional, cell-based;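 further: beta-galactosidase luminescence from glucocorticoid response element reporter as proxy for Hsp90 function; inhibitor potency where signal loss means Hsp90 inhibition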
[2] = NIH-3T3 fibroblast cytotoxicity, dose response, cytotoxicity control, cell-based, fluorescence, Alamar Blue, secondary assay (AID 2327); type: functional;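 further: NIH-3T3 mouse fibroblasts cultured with fluconazole at 8 µg/mL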
[3] = target: T1, Serine/threonine-protein phosphatase (Candida dubliniensis (strain CD36 / CBS 7987 / NCPF 3949 / NRRLY-17841) (Yeast), UniProt B9W6M3); test: calcineurin pathway inhibitors in yeast reporter, dose response, S. cerevisiae, CDRE-lacZ, luminescence, secondary (AID 2388); type: functional, cell-based;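 further: yeast reporter cells carrying a calcineurin-responsive lacZ construct stimulated with calcium chloride; luminescent beta-galactosidase reporter signal in whole cells rather than isolated phosphatase activity; potency for inhibition where a drop in reporter signal means calcineurin blockade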
T1 sequence (B9W6M3 whole entry): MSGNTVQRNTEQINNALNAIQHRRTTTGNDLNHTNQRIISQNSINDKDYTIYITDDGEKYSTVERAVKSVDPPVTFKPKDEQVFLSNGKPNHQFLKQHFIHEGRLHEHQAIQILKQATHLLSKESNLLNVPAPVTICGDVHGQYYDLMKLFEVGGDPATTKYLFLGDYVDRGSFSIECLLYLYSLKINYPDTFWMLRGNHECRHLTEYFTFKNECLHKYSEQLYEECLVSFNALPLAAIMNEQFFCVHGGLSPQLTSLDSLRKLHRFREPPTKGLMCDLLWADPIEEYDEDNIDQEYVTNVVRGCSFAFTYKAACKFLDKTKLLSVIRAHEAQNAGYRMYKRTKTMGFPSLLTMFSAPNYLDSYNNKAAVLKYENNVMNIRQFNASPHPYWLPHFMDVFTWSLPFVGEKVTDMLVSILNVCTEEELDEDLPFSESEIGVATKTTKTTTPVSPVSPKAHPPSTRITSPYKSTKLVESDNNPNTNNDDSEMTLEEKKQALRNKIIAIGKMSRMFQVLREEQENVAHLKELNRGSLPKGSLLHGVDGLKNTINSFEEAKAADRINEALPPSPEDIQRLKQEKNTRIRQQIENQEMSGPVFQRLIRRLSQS

[4] = C. albicans growth with fluconazole, confirmation, fluorescence, retest (AID 2467); type: functional, cell-based
[5] = target: T2, Caspase-6 (Homo sapiens, UniProt P55212); test: human caspase-6 inhibitors, dose response, biochemical, VEID-R110 fluorescence, cherry-pick (AID 720632)
T2 sequence (P55212 whole entry): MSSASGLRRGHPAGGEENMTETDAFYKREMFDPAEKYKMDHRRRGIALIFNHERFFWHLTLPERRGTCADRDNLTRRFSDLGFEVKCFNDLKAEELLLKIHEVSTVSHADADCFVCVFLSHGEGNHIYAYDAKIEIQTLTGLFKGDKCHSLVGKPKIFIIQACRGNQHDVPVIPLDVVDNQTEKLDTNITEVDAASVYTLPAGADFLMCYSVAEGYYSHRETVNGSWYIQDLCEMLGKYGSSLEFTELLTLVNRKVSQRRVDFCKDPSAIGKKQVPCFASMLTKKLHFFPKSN

[6] = target: Genome polyprotein (dengue virus type 2, UniProt P29990); test: Dengue-2 NS5 methyltransferase inhibitors, primary screen, biochemical, confirmation dose response (AID 588689); type: functional
[7] = target: Heat shock protein HSP 90-alpha (Homo sapiens, UniProt P07900); type: functional, organism-based
[8] = tested on: Vero; test: Vero cell cytotoxicity, cytotoxicity control for flavivirus capping enzyme inhibitors (AID 588742); type: functional; details: Chlorocebus sabaeus
[9] = target: Paired box protein Pax-8 (Homo sapiens, UniProt Q06710); test: inhibitors of PAX8-driven TPO luciferase reporter, dose response, RMG-I cells, cherry-pick (AID 687027); type: functional, cell-based;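 further: luciferase reporter driven by Pax8 target thyroperoxidase promoter measured by SteadyGlo luminescence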
[10] = tested on: H9c2; test: cells; type: functional, cell-based; details: Rattus norvegicus, H9c2, Myocardium;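 further: confirmatory concentration-response retest of ultra-high-throughput screening hits for modulation of myocardial damage; cell death induced by hydrogen peroxide oxidative stress; compound pretreatment for 60 min then peroxide exposure for 2 h; potency is for protecting the cells against peroxide damage rather than for killing them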
[11] = non-specific cell cytotoxicity, dose response, cytotoxicity control for PAX8 inhibitor project, plate reader, dry powder samples (AID 743021); type: functional, cell-based
[12] = target: Mu-type opioid receptor (Homo sapiens, UniProt P35372); type: functional, cell-based;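 further: U2OS cells with beta-arrestin recruitment to OPRM1 by beta-gal complementation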
[13] = target: 5-hydroxytryptamine receptor 2A (Mus musculus, UniProt P35363); type: functional, cell-based;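 further: CHO-K1 cells with tagged receptor and beta-arrestin; agonist potency measured as compound-induced activation of the receptor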
[14] = target: T3, Heat shock factor protein 1 (Mus musculus, UniProt P38532); test: inhibition of MG132-induced HSE-luciferase signal, confirmation, cell-based, NIH3T3, luminescence, dose retest (AID 2382); type: functional;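 further: NIH3T3 fibroblasts with HSF1-driven luciferase reporter stressed by proteasome inhibitor MG132; luminescence from HSF1-driven luciferase expression after 8 hours of MG132 stress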
T3 sequence (P38532 whole entry): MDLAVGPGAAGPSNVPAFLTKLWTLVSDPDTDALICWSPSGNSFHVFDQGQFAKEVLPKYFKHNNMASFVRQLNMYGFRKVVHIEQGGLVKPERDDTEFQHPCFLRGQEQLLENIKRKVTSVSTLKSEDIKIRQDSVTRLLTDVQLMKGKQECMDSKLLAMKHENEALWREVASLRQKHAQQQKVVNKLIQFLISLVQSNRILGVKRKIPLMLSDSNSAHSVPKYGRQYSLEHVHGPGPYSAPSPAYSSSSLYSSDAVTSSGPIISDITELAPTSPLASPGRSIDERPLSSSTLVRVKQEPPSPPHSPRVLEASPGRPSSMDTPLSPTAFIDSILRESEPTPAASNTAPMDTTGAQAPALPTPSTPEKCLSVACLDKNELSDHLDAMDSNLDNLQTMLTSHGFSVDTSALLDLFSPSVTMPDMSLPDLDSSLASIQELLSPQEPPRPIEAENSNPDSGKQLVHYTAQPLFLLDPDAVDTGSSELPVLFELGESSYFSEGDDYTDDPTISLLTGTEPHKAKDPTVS

[15] = target: SWI/SNF-related matrix-associated actin-dependent regulator of chromatin subfamily A member 2 (Homo sapiens, UniProt P51531); test: Luminescence-based cell-based high throughput dose response assay to identify activators of the function of SWI/SNF related, matrix associated, actin dependent regulator of chromatin, subfamily a, member 2 (SMARCA2, BRM).; type: functional
[16] = Counterscreen for activators of the function of SWI/SNF related, matrix associated, actin dependent regulator of chromatin, subfamily a, member 2 (SMARCA2, BRM): Luminescence-based cell-based high throughput dose response assay to identify non-selective compounds using the VP16 reporter assay.; type: functional
[17] = target: T4, Rac GTPase-activating protein 1 (Homo sapiens, UniProt Q9H0H5); test: MgcRacGAP GTPase-activating activity inhibitors, confirmation, biochemical, ADP Hunter fluorescence, primary and confirmatory (AID 624330); type: functional
T4 sequence (Q9H0H5 whole entry): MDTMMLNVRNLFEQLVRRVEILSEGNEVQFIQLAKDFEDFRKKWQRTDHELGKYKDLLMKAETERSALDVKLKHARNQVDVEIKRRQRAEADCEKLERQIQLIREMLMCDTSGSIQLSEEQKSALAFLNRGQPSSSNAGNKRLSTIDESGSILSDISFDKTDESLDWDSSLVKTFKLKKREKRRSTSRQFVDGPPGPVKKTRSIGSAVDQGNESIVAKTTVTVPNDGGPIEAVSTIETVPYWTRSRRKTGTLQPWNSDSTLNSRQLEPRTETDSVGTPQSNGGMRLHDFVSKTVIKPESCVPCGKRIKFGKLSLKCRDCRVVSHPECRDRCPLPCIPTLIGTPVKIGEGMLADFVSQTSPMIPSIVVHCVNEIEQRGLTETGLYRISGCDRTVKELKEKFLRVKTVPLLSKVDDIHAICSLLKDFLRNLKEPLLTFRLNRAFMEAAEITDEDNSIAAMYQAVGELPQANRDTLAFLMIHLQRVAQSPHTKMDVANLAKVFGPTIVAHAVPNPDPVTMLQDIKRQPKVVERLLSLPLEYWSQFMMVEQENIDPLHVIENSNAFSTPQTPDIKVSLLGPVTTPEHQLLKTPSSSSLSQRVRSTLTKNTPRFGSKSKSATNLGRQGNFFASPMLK

[18] = target: T5, Polyadenylate-binding protein 1 (Homo sapiens, UniProt P11940); test: PABP1 MLLE–PAM2 interaction inhibitors, dose response, miRNA deadenylation inhibitor project, biochemical, fluorescence polarization, Cy5-PAM2 peptide, secondary (AID 602260); type: functional; details: read-out: IC50_Mean
[19] = target: T5, Polyadenylate-binding protein 1; test: PABP1 MLLE–PAM2 binding inhibitor potency, dose response, biochemical, fluorescence polarization, FITC-PAM2 peptide (AID 602259); type: functional; details: read-out: IC50_Mean
[20] = target: T6, Beta-lactamase (Pseudomonas aeruginosa, UniProt Q79MP6); test: IMP-1 metallo-beta-lactamase inhibitors, dose response, selectivity assay for VIM-2 inhibitor project, biochemical, epi-absorbance (AID 1920)
[21] = target: Beta-lactamase (Salmonella choleraesuis (strain SC-B67), UniProt Q5J463); test: Epi-absorbance-based counterscreen for selective VIM-2 inhibitors: dose response biochemical high throughput screening assay to identify inhibitors of TEM-1 serine-beta-lactamase.
[22] = target: T6, Beta-lactamase; test: […] counterscreen for selective VIM-2 inhibitors: dose response biochemical high throughput screening assay to identify inhibitors of IMP-1 metallo-beta-lactamase.
[23] = target: T7, DNA repair protein RAD52 homolog (Homo sapiens, UniProt P43351); type: functional, biochemical
T7 sequence (P43351 whole entry): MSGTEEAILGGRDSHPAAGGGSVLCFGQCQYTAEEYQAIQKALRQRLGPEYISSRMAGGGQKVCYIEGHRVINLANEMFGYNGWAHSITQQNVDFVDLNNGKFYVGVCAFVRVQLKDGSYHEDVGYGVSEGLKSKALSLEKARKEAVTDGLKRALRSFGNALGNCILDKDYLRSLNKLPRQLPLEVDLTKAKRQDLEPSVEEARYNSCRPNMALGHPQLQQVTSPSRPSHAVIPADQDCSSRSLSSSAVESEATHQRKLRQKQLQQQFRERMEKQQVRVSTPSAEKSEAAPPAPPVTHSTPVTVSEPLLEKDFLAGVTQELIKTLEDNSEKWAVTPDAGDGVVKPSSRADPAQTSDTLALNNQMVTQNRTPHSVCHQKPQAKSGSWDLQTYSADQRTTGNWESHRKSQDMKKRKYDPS

[24] = HeLa cell cytotoxicity, dose response, cytotoxicity control for MgcRacGAP inhibitor project (AID 624300); type: functional
[25] = tested on: Vero; test: cells; type: functional; details: Chlorocebus sabaeus
[26] = tested on: Vero; test: cells; type: functional, cell-based; details: Chlorocebus sabaeus
[27] = target: T8, Microphthalmia-associated transcription factor (Homo sapiens, UniProt O75030); test: TRPM1 promoter luciferase signal decrease, dose response, MITF inhibitor project, cell-based, SK-MEL-5, cherry-picked, set 3 (AID 493073); type: functional
T8 sequence (O75030 whole entry): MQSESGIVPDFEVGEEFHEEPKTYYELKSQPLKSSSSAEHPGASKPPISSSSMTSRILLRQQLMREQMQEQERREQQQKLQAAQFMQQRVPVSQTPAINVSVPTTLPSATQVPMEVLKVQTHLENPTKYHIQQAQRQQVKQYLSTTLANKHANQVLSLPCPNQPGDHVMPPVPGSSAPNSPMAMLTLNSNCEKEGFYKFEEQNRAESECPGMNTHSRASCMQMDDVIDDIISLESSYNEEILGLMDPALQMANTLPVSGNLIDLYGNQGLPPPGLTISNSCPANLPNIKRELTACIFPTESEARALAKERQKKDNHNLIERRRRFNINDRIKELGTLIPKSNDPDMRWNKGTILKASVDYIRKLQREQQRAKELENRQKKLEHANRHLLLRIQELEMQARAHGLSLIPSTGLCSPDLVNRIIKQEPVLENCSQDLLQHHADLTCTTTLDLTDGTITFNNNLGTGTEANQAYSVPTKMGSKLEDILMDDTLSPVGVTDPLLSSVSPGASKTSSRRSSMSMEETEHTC

Sequence of Paired box protein Pax-8 (Q06710 whole entry): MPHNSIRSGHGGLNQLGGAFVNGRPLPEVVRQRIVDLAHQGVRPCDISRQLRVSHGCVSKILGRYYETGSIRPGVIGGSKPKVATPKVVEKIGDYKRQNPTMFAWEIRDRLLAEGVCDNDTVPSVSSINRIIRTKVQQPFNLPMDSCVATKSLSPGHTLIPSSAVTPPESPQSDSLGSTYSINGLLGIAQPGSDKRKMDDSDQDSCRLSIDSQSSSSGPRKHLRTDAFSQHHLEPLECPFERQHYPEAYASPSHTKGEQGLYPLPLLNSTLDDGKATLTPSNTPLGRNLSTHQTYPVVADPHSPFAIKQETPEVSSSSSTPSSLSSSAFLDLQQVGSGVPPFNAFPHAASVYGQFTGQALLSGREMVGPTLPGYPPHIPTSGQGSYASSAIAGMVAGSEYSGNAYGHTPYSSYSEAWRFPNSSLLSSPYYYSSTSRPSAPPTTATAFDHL
Sequence of SWI/SNF-related matrix-associated actin-dependent regulator of chromatin subfamily A member 2 (P51531 whole entry): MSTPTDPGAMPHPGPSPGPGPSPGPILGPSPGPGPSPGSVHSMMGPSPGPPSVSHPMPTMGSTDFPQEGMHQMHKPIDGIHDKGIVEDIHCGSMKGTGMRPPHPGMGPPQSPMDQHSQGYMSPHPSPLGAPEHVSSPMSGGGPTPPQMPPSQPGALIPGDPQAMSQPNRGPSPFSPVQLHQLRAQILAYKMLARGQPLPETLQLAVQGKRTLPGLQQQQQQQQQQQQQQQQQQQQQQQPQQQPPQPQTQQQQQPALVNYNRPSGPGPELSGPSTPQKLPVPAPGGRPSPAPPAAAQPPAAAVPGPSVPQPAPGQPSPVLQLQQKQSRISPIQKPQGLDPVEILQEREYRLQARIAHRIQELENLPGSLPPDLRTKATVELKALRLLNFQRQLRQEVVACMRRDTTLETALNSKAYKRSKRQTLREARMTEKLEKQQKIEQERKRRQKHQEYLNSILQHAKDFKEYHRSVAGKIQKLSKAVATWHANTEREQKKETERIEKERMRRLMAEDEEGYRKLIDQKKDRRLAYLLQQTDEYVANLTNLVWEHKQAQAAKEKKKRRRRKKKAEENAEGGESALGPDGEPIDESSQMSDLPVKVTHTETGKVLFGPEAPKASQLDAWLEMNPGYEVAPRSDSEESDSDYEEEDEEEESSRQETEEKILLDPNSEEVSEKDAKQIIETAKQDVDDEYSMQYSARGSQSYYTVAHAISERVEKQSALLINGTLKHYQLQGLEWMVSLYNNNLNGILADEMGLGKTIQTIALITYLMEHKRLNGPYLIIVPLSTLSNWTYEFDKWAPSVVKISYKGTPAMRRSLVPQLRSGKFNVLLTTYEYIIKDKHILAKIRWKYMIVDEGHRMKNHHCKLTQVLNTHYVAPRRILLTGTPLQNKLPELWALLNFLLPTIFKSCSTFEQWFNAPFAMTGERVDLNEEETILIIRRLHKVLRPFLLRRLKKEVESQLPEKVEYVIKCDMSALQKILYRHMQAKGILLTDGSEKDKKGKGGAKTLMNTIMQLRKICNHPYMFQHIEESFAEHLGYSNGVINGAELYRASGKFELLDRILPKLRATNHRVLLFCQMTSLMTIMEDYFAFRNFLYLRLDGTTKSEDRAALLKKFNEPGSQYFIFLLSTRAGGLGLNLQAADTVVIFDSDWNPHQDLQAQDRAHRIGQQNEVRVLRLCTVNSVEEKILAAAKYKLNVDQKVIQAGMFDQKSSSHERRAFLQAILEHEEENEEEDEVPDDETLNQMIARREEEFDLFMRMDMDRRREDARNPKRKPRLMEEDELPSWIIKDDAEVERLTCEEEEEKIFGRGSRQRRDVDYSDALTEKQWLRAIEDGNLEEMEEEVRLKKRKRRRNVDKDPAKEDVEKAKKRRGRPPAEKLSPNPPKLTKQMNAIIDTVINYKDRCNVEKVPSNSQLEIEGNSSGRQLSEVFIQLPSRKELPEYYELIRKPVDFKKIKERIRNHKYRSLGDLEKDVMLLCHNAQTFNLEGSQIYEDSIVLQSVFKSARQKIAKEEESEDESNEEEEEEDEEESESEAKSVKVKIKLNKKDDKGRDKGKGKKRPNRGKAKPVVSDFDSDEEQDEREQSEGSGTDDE
Sequence of Mu-type opioid receptor (P35372 whole entry): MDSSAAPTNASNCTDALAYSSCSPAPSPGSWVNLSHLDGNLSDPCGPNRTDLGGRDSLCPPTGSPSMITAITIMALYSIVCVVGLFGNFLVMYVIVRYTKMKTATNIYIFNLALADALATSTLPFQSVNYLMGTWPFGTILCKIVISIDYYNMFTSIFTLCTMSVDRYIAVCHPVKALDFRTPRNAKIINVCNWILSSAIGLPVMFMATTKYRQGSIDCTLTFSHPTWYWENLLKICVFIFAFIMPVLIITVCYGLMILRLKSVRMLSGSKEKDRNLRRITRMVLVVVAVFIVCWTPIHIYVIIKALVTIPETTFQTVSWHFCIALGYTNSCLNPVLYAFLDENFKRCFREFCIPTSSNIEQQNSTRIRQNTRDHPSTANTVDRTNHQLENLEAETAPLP
Sequence of ATP-dependent molecular chaperone HSP82 (C4YTQ8 whole entry): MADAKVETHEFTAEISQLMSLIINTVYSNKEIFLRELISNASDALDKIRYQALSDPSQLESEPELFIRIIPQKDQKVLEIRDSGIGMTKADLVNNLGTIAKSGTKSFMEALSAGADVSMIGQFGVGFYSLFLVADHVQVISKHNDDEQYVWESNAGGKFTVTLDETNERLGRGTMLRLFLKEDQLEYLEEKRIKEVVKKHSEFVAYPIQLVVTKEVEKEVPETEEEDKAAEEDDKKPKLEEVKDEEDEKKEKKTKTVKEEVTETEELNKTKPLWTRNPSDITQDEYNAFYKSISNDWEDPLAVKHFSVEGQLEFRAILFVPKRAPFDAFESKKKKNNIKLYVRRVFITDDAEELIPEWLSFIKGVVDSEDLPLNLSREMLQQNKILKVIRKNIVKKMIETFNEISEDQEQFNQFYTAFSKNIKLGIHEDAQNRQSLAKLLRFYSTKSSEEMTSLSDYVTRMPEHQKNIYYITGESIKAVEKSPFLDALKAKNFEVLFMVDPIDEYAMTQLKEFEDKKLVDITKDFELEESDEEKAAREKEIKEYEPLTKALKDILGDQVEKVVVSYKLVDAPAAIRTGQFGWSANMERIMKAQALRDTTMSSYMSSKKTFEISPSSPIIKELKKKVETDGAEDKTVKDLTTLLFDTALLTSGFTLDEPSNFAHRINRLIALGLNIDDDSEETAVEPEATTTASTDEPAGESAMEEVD
Sequence of 5-hydroxytryptamine receptor 2A (P35363 whole entry): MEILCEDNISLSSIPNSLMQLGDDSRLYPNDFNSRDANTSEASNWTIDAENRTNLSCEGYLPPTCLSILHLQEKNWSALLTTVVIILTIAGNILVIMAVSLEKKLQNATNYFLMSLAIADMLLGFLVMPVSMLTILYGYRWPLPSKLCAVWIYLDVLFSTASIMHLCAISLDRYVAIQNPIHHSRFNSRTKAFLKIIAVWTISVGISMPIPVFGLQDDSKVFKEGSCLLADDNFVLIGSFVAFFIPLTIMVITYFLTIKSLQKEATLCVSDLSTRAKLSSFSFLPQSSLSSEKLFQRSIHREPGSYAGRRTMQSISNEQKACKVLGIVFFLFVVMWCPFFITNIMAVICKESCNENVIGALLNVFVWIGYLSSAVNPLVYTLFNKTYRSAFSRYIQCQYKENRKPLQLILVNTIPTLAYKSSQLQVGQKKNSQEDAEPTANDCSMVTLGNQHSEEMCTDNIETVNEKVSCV
T6 sequence (Q79MP6 whole entry): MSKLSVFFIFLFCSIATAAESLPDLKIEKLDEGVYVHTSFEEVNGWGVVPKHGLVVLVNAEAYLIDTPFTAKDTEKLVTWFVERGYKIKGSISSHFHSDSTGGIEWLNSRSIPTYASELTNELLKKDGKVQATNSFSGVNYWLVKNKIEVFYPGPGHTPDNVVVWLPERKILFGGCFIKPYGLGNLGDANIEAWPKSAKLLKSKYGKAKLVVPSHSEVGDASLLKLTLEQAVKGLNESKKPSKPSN
T5 sequence (P11940 whole entry): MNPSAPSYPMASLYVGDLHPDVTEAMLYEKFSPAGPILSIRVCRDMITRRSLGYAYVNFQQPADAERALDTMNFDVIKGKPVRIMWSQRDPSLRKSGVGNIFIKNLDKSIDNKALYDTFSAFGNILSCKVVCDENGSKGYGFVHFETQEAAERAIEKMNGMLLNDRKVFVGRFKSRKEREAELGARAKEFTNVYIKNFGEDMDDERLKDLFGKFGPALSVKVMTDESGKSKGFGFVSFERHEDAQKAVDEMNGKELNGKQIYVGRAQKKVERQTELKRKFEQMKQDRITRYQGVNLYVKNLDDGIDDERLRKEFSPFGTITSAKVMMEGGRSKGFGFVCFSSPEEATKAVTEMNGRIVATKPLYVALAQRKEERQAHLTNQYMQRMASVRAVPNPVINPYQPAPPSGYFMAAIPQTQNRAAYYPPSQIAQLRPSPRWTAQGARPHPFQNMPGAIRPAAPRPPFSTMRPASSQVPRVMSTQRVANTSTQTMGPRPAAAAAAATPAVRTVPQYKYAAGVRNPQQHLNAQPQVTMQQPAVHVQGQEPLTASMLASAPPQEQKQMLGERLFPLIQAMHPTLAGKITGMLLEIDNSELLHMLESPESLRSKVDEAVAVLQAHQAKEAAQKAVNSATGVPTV
Sequence of Beta-lactamase (Salmonella choleraesuis (strain SC-B67), UniProt Q5J463) (Q5J463 whole entry): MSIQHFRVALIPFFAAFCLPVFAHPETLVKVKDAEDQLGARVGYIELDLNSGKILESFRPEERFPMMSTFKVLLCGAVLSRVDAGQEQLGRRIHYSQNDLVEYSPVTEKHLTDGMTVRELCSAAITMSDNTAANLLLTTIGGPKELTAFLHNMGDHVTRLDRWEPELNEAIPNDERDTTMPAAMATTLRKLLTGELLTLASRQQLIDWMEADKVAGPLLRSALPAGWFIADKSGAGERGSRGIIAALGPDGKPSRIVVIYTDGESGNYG

O=C(c1cc2c(s1)CCCCC2)N1CCN(c2ncccn2)CC1
EC50 [1]: 23.9 µM (active)
EC50 [2]: > 160 µM (inconclusive)
EC50 [3]: > 180 µM (inactive)
EC50 [4]: 1.2 µM (active)

O=C1CN(C(=O)COC(=O)c2ccc([N+](=O)[O-])o2)c2ccccc2N1
AC50 [5]: 15.1 µM (active)

Nc1nc(-c2ccccc2)nc(O)c1N=O
AC50 [5]: 11.6 µM (active)

Oc1c(Cl)cccc1Cc1cc(Cl)cc(Cl)c1O
IC50 [6]: 45.5 µM (active)
AC50 [7]: 3.05 µM (active)
CC50 [8]: 19.3 µM (active)

O=C(C(=O)N(Cc1ccccc1)Cc1ccccc1)c1c(-c2ccccc2)[nH]c2ccccc12
AC50 [9]: 7.45 µM (active)
IC50 [10]: > 79 µM (inactive)
AC50 [11]: 44.5 µM (active)

c1ccc(COc2cccc(CN3CCN(c4ccccn4)CC3)c2)cc1
EC50 [12]: 92.5 µM (inactive)
EC50 [13]: 0.022 µM (active)
EC50 [14]: > 195 µM (not active)

CC(C)=CCNc1ncnc2c1c(C#N)cn2C1OC(CO)C(O)C1O (centres undefined)
AC50 [9]: 3.79 µM (active)
EC50 [15]: > 91.1 µM (inactive)
EC50 [16]: > 91.1 µM (inactive)

O=C(NCc1ccco1)c1sc(=S)n2c1[nH]c(=O)c1ccccc12
IC50 [17]: 75.6 µM (active)
EC50 [1]: > 160 µM (inactive)
EC50 [2]: > 160 µM (inactive)
EC50 [3]: > 180 µM (inactive)
EC50 [4]: 0.837 µM (active)
IC50 [18]: > 66 µM (inactive)
IC50 [19]: > 66 µM (inactive)

CCOc1ccc(NC(=O)CCN2CCN(c3ccccc3F)CC2)cc1
EC50 [12]: 92.6 µM (inactive)
EC50 [13]: 0.0925 µM (active)

O=C(O)C(NC(=O)c1ccccc1)=C(Cl)Cl
IC50 [20]: > 59.6 µM (inactive)
IC50 [21]: > 59.6 µM (inactive)
IC50 [22]: > 59.6 µM (inactive)

COc1cc2c[n+](C)c3c4ccccc4ccc3c2cc1OC
IC50 [17]: 60.5 µM (active)
EC50 [15]: > 91.1 µM (inactive)
AC50 [23]: 0.36 µM (active)
EC50 [16]: > 91.1 µM (inactive)
CC50 [24]: 66 µM (active)

NC(=O)c1ccsc1NC(=O)c1ccc([N+](=O)[O-])o1
CC50 [25]: 11.7 µM (active)
AC50 [9]: 3.8 µM (active)
EC50 [15]: > 91.1 µM (inactive)
EC50 [16]: > 91.1 µM (inactive)
IC50 [10]: > 79 µM (inactive)

CCN(CC)C(=O)N[C@H]1C[C@@H]2c3cccc4[nH]cc(c34)C[C@H]2N(C)C1 [TERGURIDE]
EC50 [12]: 92.5 µM (inactive)
EC50 [13]: 0.0038 µM (active)

NC(=O)c1c(NC(=O)c2ccco2)sc2c1CCC2
EC50 [1]: > 150 µM (inactive)
EC50 [2]: > 150 µM (inactive)
EC50 [3]: > 180 µM (inactive)
EC50 [4]: 0.654 µM (inconclusive)

CC(C)C(CCNC1CCN(C)CC1)c1ccc(Cl)cc1 (centres undefined)
IC50 [26]: > 25 µM (active)
CC50 [25]: 20.4 µM (active)
AC50 [27]: 11.9 µM (active)
